In patent US8884013B2, “Polymorphs of Dasatinib, preparation methods and pharmaceutical compositions thereof” (Nan Jing Cavendish Bio-Engineering Technology Co., Ltd., priority 2010, dated 2014):

Experiment: Comparative test on stability: destruction experiment, related substances by HPLC
Type: physicochemical
Protocol: The methods of destruction experiment of the Polymorph I and II of this invention (hereinafter referred to as ‘Polymorph I’ and ‘Polymorph II’) contrasting with the Polymorph A of Dasatinib prepared by the method in CN200580011916.6 (hereinafter referred to as ‘916.6 Polymorph A’) and results of stability are followed:
Oxidation destruction: 50 mg of sample weighted accurately was added into measuring flask of 100 mL, and 10 mL 30% H2O2 was added. After standing at room temperature for 2 hour, the mixture was diluted with mobile phase to scale and shook to be homogeneous, and determined by HPLC.
(§1) Acid destruction: 50 mg of sample weighted accurately was added into measuring flask of 100 mL, and 10 mL 1 mol/L HCl solution was added. After standing at 40° C. for 1 hour, an equal amount of 1 mol/L NaOH solution was added for neutralization. Then the mixture was diluted with mobile phase to scale and shook to be homogeneous, and determined by HPLC.
as §1, with “Alkali” for “Acid”, “NaOH” for “HCl”, “HCl” for “NaOH”
Illumination destruction: 50 mg of sample weighted accurately was added into measuring flask of 100 mL, dissolved and diluted with mobile phase to be the solution containing 0.5 mg Dasatinib per milliliter. After standing under illumination of 4000 lx for 6 hour, the mixture was determined by HPLC.
High temperature destruction: 50 mg of sample weighted accurately was added into measuring flask of 100 mL, dissolved and diluted with mobile phase to be the solution containing 0.5 mg Dasatinib per milliliter. After standing in homothermal water bath of 60° C. for 4 hour, the mixture was cooled and then determined by HPLC.
Related Substances Determination
HPLC conditions and system applicability: octadecylsilane bonded silica as the filler; 0.05 mol/L of potassium dihydrogen phosphate (adjusted to pH 2.5 by phosphoric acid, 0.2% triethylamine)-methanol (45:55) as the mobile phase; detection wavelength was 230 nm; the number of theoretical plates should be not less than 2000, calculated according to the peak of Dasatinib. The resolution of the peak of Dasatinib from the peaks of adjacent impurities should meet requirements.
Determination method: sample was dissolved in mobile phase to be the solution containing 0.5 mg per milliliter. 20 μL of such solution was injected into liquid chromatograph, and chromatogram was recorded until the sixfold retention time of major component peak. If there were impurities peaks in the chromatogram of sample solution, total impurities and any single impurity were calculated by normalization method on the basis of peak area.

Stability by comparison with Polymorph I: worse performance in stability | Impurity tR3.580 (1 mol/L acid destruction): 0.01% | Impurity tR4.106 (1 mol/L acid destruction): 0.02% | Impurity tR5.001 (1 mol/L acid destruction): 0.02% | Total impurities (1 mol/L acid destruction (HCl, 40° C., 1 hour)): 0.06% | Impurity tR4.107 (1 mol/L alkali destruction): 0.01% | Impurity tR5.007 (1 mol/L alkali destruction): 0.03% | Impurity tR5.351 (1 mol/L alkali destruction): 0.03% | Impurity tR8.943 (1 mol/L alkali destruction): 0.01% | Total impurities (1 mol/L alkali destruction (NaOH, 40° C., 1 hour)): 0.11% | Impurity tR4.135 (before destruction): 0.02% | Impurity tR5.092 (before destruction): 0.02% | Impurity tR5.523 (before destruction): 0.03% | Total impurities (before destruction): 0.07% | Impurity tR4.118 (high temperature destruction): 0.02% | Impurity tR5.081 (high temperature destruction): 0.03% | Impurity tR5.502 (high temperature destruction): 0.03% | Total impurities (high temperature destruction (60° C. water bath, 4 hour, in solution)): 0.08% | Impurity tR2.456 (illumination destruction): 0.30% | Impurity tR3.732 (illumination destruction): 0.14% | Impurity tR4.589 (illumination destruction): 0.11% | Impurity tR5.088 (illumination destruction): 0.06% | Impurity tR5.503 (illumination destruction): 0.19% | Impurity tR10.095 (illumination destruction): 0.82% | Total impurities (illumination destruction (4000 lx, 6 hour, in solution)): 1.89% | Impurity tR4.123 (oxidation destruction): 0.01% | Impurity tR4.584 (oxidation destruction): 0.02% | Impurity tR5.089 (oxidation destruction): 0.02% | Impurity tR5.504 (oxidation destruction): 0.05% | Impurity tR9.450 (oxidation destruction): 2.30% | Total impurities (oxidation destruction (30% H2O2, room temperature, 2 hour)): 2.41%
SMILES: Cc1nc(Nc2ncc(C(=O)Nc3c(C)cccc3Cl)s2)cc(N2CCN(CCO)CC2)n1 [916.6 Polymorph A, N-(2-chloro-6-methylphenyl)-2-[[6-[4-(2-hydroxyethyl)-1-piperazinyl]-2-methyl-4-pyrimidyl]amino]-5-thiazolformamide, reference compound]
